Source: the supplement of paper PMC10307832

Assays:
Assay in all cases: relative viability (nuclei count vs DMSO), 5 days (fraction); higher = more cells survive
[1] = compound: O=C(CCCCCCNC(=O)c1cnc(N(c2ccccc2)c2ccccc2)nc1)NO [Ricolinostat] + C[C@@H](Oc1cc(-c2cnn(C3CCNCC3)c2)cnc1N)c1c(Cl)ccc(F)c1Cl [Crizotinib] (partner 1 µM)
Summary of the method: (§1)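 Cells from lung cancer lines were seeded into 1536-well plates and, one day later, dosed by pin tool. Treatments were either a single drug or a fixed dose of an anchor drug with five library-drug doses (not always all listed) in √10 steps. After 5 days, nuclei were stained in a one-step fixation (final 0.05% Triton X-100, 1% formaldehyde, 1 ug/ml Hoechst) and counted on 4× images, and relative viability is the treated-to-vehicle nuclei ratio, as the median of duplicate plates.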

Ricolinostat + Foretinib = compound: O=C(CCCCCCNC(=O)c1cnc(N(c2ccccc2)c2ccccc2)nc1)NO [Ricolinostat] + COc1cc2c(Oc3ccc(NC(=O)C4(C(=O)Nc5ccc(F)cc5)CC4)cc3F)ccnc2cc1OCCCN1CCOCC1 [Foretinib] (partner 0.25 µM)
Summary of the method: as §1

Ricolinostat + Alpelisib = compound: O=C(CCCCCCNC(=O)c1cnc(N(c2ccccc2)c2ccccc2)nc1)NO [Ricolinostat] + Cc1nc(NC(=O)N2CCC[C@H]2C(N)=O)sc1-c1ccnc(C(C)(C)C(F)(F)F)c1 [Alpelisib] (partner 2 µM)
Summary of the method: as §1

[2] = compound: O=C(CCCCCCNC(=O)c1cnc(N(c2ccccc2)c2ccccc2)nc1)NO [Ricolinostat] + Cc1cc(Nc2cc(N3CCN(C)CC3)nc(Sc3ccc(NC(=O)C4CC4)cc3)n2)n[nH]1 [Tozasertib] (partner 0.1 µM)
Summary of the method: as §1

Ricolinostat + OSI-027 = compound: O=C(CCCCCCNC(=O)c1cnc(N(c2ccccc2)c2ccccc2)nc1)NO [Ricolinostat] + COc1cccc2cc(-c3nc([C@H]4CC[C@H](C(=O)O)CC4)n4ncnc(N)c34)[nH]c12 [OSI-027] (partner 0.5 µM)
Summary of the method: as §1

Cell Line	relative viability ([1]; first compound 0.08 µM)	relative viability ([1]; first compound 0.253 µM)	relative viability ([1]; first compound 0.8 µM)	relative viability ([1]; first compound 2.53 µM)	relative viability (Ricolinostat + Foretinib; first compound 0.08 µM)	relative viability (Ricolinostat + Foretinib; first compound 0.253 µM)	relative viability (Ricolinostat + Foretinib; first compound 0.8 µM)	relative viability (Ricolinostat + Foretinib; first compound 2.53 µM)	relative viability (Ricolinostat + Alpelisib; first compound 0.08 µM)	relative viability (Ricolinostat + Alpelisib; first compound 0.253 µM)	relative viability (Ricolinostat + Alpelisib; first compound 0.8 µM)	relative viability (Ricolinostat + Alpelisib; first compound 2.53 µM)	relative viability ([2]; first compound 0.08 µM)	relative viability ([2]; first compound 0.253 µM)	relative viability ([2]; first compound 0.8 µM)	relative viability ([2]; first compound 2.53 µM)	relative viability (Ricolinostat + OSI-027; first compound 0.08 µM)	relative viability (Ricolinostat + OSI-027; first compound 0.253 µM)	relative viability (Ricolinostat + OSI-027; first compound 0.8 µM)	relative viability (Ricolinostat + OSI-027; first compound 2.53 µM)
NCI-H1299	0.928	0.917	0.974	0.891	1.05	1.07	1.07	1.06	1.06	0.99	0.988	0.944	–	–	–	–	–	–	–	–
UMC-11	0.544	0.627	0.561	0.218	1.13	1.07	0.864	0.504	0.882	1.09	0.961	0.856	0.221	0.192	0.159	0.165	0.406	0.517	0.487	0.235
NCI-H1755	0.786	–	0.893	0.79	0.853	0.925	0.903	0.91	0.771	–	0.92	0.902	0.581	0.565	0.525	0.53	0.538	0.791	0.717	0.62
SK-LU-1	0.789	0.897	0.809	0.682	0.739	0.908	0.772	0.722	0.947	0.914	0.84	0.708	0.321	0.273	0.285	0.194	0.321	0.431	0.353	0.269
NCI-H1793	–	–	–	–	–	0.737	0.741	0.876	–	0.633	0.698	0.755	–	0.256	0.27	0.244	–	0.252	0.284	0.221
NCI-H647	1.08	1.05	1.01	0.661	1	1	1.01	1.02	1.16	1.09	1.15	0.937	0.315	0.195	0.27	0.206	0.546	0.508	0.489	0.543
NCI-H1975	1.01	0.954	–	0.884	1.04	0.975	0.822	0.917	0.582	0.556	–	0.492	0.83	0.708	0.604	0.59	0.638	0.84	0.76	0.599
NCI-H1648	–	–	–	–	–	–	–	–	–	–	–	–	0.273	0.536	0.366	0.237	0.28	0.281	0.249	0.259
NCI-H2126	0.862	0.945	1.06	1.01	0.864	1.23	1.16	1	0.578	0.707	0.716	0.628	–	0.823	0.739	0.495	0.489	0.847	0.658	0.692
EBC-1	0.186	0.163	0.164	0.224	0.0899	0.101	0.0995	0.0994	0.57	0.737	0.699	0.414	–	–	–	–	–	–	–	–
